Test results published in patent US9631196B2, “Genetic manipulation and expression systems for Pucciniomycotina and Ustilaginomycotina subphyla” (priority 2011, dated 2017).
Read-outs that look alike come from different tables or passages of the source.

Key:
U maydis spheroplasts = type: cell-based, Ustilago maydis
Text: (§1) cyp1 (um11812) and ptf1 (um02713) genes were chosen for the comparison of gene-targeting frequency, which can be monitored by the loss of ustilagic acids (UA) production and the loss of Fuz^+ colonies, respectively. Gene deletion constructs, pKOcyp1 and pKOprf1, were made by one-step ligation of four fragments. pKOcyp1 is composed of the 2.0-kb HindIII-PacI fragment containing the Pgpd::hpt cassette, the 8.7 kb NcoI-KpnI fragment from pEX2tk, the 1405 bp NcoI-HindIII and the 1076 bp PacI-KpnI PCR product derived from the upstream and downstream regions of the cyp1 ORF. The oligo pairs Cyp1L-Nf/Cyp1L-Hr (SEQ ID NO:29/SEQ ID NO:30) and Cyp1R-Pf/Cyp1R-Kr (SEQ ID NO:31/SEQ ID NO:32) were used for the amplification of upstream and downstream region, respectively. pKOprf1 was made similarly except the PCR product of oligo pairs Prf1L-Nf/Prf1L-Hr (SEQ ID NO:33/SEQ ID NO:34) and Prf1R-Pf/Prf1R-Kr (SEQ ID NO:35/SEQ ID NO:36) were used as the upstream and downstream homology region, respectively. Correct strains were identified by colony PCR using Taq DNA polymerase based on the size of the expected constructs using oligos LB/Cyp1L-Nf (SEQ ID NO:37/SEQ ID NO:29) and LB/Prf1L-Nf (SEQ ID NO:37/SEQ ID NO:33) for cyp1Δ and prf1Δ respectively. The same construction and identification techniques were applied to generate other gene deletion mutants in this study.
PEG-mediated transformation of U maydis spheroplasts were done as described previously (Kämper, 2004). Briefly, the 4.5 kb cyp1 and prf1 gene deletion cassettes were amplified from pKOcyp1 and pKOprf1 using the Expand Long System (Roche Diagnosis, USA) and oligos Cyp1L-Nf/Cyp1R-Kr (SEQ ID NO:29/SEQ ID NO:32) and Prf1L-Nf/Prf1R-Kr (SEQ ID NO:33/SEQ ID NO:36), respectively. The PCR products were gel purified (Qiagen, Germany) and used for transformation. […]

U. maydis L8 and SG200 = type: cell-based, Ustilago maydis; conditions: for cyp1Δ (%) gene knockout frequency / prf1 Δ (%) gene knockout frequency: co-culture 2 days
Text: as §1
Similar results were obtained when knockout was performed via the ATMT transformation (Table 9).

[1] = NU7026 1 μM in top and bottom regeneration media, 3 days, out of 288 transformants

O=c1cc(N2CCOCC2)oc2c1ccc1ccccc12 [NU7026, 2-(morpholin-4-yl)-benzo[h]chomen-4-one; 2-(4-morpholinyl)-4H-naphthol[1,2-b]pyran-4-one]
cyp1Δ gene knockout frequency (U maydis spheroplasts; [1]): 16.67%
prf1Δ gene knockout frequency (U maydis spheroplasts; [1]): 26.39%
increase of gene knockout frequency (U maydis spheroplasts; both cyp1 and prf1, NU7026 1 μM vs control): about 3 folds
cyp1Δ (%) gene knockout frequency (U. maydis L8 and SG200; NU7026 0.1 μM): 8.3%
prf1 Δ (%) gene knockout frequency (U. maydis L8 and SG200; NU7026 0.1 μM): 11.4%
cyp1Δ (%) gene knockout frequency (U. maydis L8 and SG200; NU7026 1 μM): 18.8%
prf1 Δ (%) gene knockout frequency (U. maydis L8 and SG200; NU7026 1 μM): 25.1%
cyp1Δ (%) gene knockout frequency (U. maydis L8 and SG200; NU7026 5 μM): 10.4%
prf1 Δ (%) gene knockout frequency (U. maydis L8 and SG200; NU7026 5 μM): 12.7%
cyp1Δ (%) gene knockout frequency (U. maydis L8 and SG200; NU7026 10 μM): 8.3%
prf1 Δ (%) gene knockout frequency (U. maydis L8 and SG200; NU7026 10 μM): 8.7%
cyp1Δ (%) gene knockout frequency (U. maydis L8 and SG200; NU7026 50 μM): 7.4%
prf1 Δ (%) gene knockout frequency (U. maydis L8 and SG200; NU7026 50 μM): 8.5%
total number of transformants obtained in 5 transformation plates (U. maydis L8 and SG200; cyp1Δ, NU7026 0.1 μM): 601
total number of transformants obtained in 5 transformation plates (U. maydis L8 and SG200; cyp1Δ, NU7026 1 μM): 496
total number of transformants obtained in 5 transformation plates (U. maydis L8 and SG200; cyp1Δ, NU7026 5 μM): 413
total number of transformants obtained in 5 transformation plates (U. maydis L8 and SG200; cyp1Δ, NU7026 10 μM): 96
total number of transformants obtained in 5 transformation plates (U. maydis L8 and SG200; cyp1Δ, NU7026 50 μM): 68
total number of transformants obtained in 5 transformation plates (U. maydis L8 and SG200; prf1Δ, NU7026 0.1 μM): 642
total number of transformants obtained in 5 transformation plates (U. maydis L8 and SG200; prf1Δ, NU7026 1 μM): 554
total number of transformants obtained in 5 transformation plates (U. maydis L8 and SG200; prf1Δ, NU7026 5 μM): 361
total number of transformants obtained in 5 transformation plates (U. maydis L8 and SG200; prf1Δ, NU7026 10 μM): 172
total number of transformants obtained in 5 transformation plates (U. maydis L8 and SG200; prf1Δ, NU7026 50 μM): 59
